≈ marks a conversion by molar mass, not a printed value. Peptide text beside a SMILES is read from it.
Experiments:
[1] = test system: E. coli (ATCC); test: Minimum Bactericidal Concentration (MBC) against E. coli; assay type: cell-based, Escherichia coli; conditions: 99.9% inhibition of bacterial growth on plates
Procedure: (§1) The evaluation of the Minimum Bactericidal Concentration (MBC), i.e., the lowest concentration of antimicrobial agent capable of 99.9% inhibition of bacterial growth on plates, was carried out as described in Bilikova et al, (2015, Peptides 68:190-196).

[2] = test system: Listeria; test: Bactericidal activity of AMP peptides at 15 μM (CFU vs control), Listeria; assay type: cell-based; conditions: peptide 15 μM
Procedure: (§2) The bactericidal activity of further AMP peptides used in the invention, in particular of the RiLK31 peptide (RLRWVKIWKK, SEQ ID NO:31) and the RiLK3 peptide (RLRWVRIWRR, SEQ ID NO:3), was tested. The bactericidal activity was expressed as a percentage of viable cells in terms of CFU (Colony Forming Units) in a bacterial sample exposed to each peptide compared to those in a control bacterial sample in the absence of the peptide. All tests were carried out with the same peptide concentration, corresponding to 15 μM.

[3] = test system: Candida albicans (ATCC 14053); assay type: cell-based
Procedure: The inhibitory activity of the RiLK1 peptide was determined against the yeast Candida albicans. A stock culture was prepared in which 10^5 CFUs of C. albicans were inoculated in 10 ml of buffered peptone water. A reference strain (ATCC 14053) was used for this species. The culture was incubated for 6 h at 37° C. with the RiLK1 peptide at 25 μM concentrations. At the same time, control samples were incubated without adding the peptide. 100 μl of the samples thus prepared were seeded on DG18 plates (Dichloran 18% Glycerol Agar—ISO 21527-2) and incubated at 25° C. for 7 days.
(§3) All experimental conditions investigated used the plate count method to estimate the antimycotic activity of the peptide. Specifically, the numbers of colonies grown on agar plates seeded with the cultures in the absence or presence of the individual peptide dilutions were counted and compared. The standard deviations of the triplicate incubations of each plate were determined using statistical software. The evaluation of the Minimum Fungicidal Concentration (MFC), i.e., the lowest concentration of antifungal agent capable of 99.9% inhibition of fungal growth on plates, was carried out as described in Bilikova et al, (2015, Peptides 68:190-196).

[4] = test system: Staphylococcus; test: Bactericidal activity of AMP peptides at 15 μM (CFU vs control), Staphylococcus; assay type: cell-based; conditions: peptide 15 μM
Procedure: as §2

[5] = test system: E. coli (ATCC); assay type: cell-based, Escherichia coli; conditions: 6 h
Procedure: (§4) The bactericidal activity of RiLK1 peptides was assessed against both Gram positive (Listeria monocytogenes LM2 and Staphylococcus aureus) and Gram negative (Salmonella typhimurium and Escherichia coli) pathogenic bacteria.
(§5) The assessment of the concentration of RiLK1 peptides capable of inhibiting 50% of bacterial growth (IC50) was performed by the broth microdilution assay as described in Wang HX and Ng TB (2003, Peptides 24:969-972).
(§6) Standard deviations were obtained from triplicate experiments for each peptide dilution, and the IC50s were determined using GraphPad Prism version 6.00 (Graph-Pad Software, La Jolla California USA).
(§7) All bactericidal activity assays were performed using 2-3 log CFUs (Colony Forming Units), which represents a realistic approximation of the contamination levels that may be contained in the tubular conduits for food or medical use.
(§8) All experimental conditions investigated used the plate count method to estimate the bactericidal activity of the peptides. Specifically, the numbers of colonies grown on agar plates seeded with the bacterial suspensions in the absence or presence of the individual peptide dilutions were counted and compared. Standard deviations were determined using statistical software.
A control stock suspension was prepared in which 10^3 CFUs of E. coli were inoculated in 10 ml of BPW (Oxoid, Basingstoke, UK). […]

[6] = test system: E. coli; test: Bactericidal activity of AMP peptides at 15 μM (CFU vs control), E. coli; assay type: cell-based; conditions: peptide 15 μM
Procedure: as §2

[7] = test system: Salmonella; test: Bactericidal activity of AMP peptides at 15 μM (CFU vs control), Salmonella; assay type: cell-based; conditions: peptide 15 μM
Procedure: as §2

[8] = test system: L. monocytogenes (LM2) (field strain); test: Minimum Bactericidal Concentration (MBC) against L. monocytogenes; assay type: cell-based, Listeria monocytogenes; conditions: 99.9% inhibition of bacterial growth on plates
Procedure: as §1

[9] = test system: Aspergillus brasiliensis (ATCC 9341); assay type: cell-based
Procedure: The antifungal activity of the RiLK1 peptide was determined against Aspergillus brasiliensis. For this purpose, a stock culture was prepared in which 10^5 CFUs of A. brasiliensis were inoculated in 10 ml of buffered peptone water. A reference strain (ATCC 9341) was used for this fungal species. The culture was incubated for 6 h at 37° C. with the RiLK1 peptide at 25 μM concentrations.
At the same time, control samples were incubated without adding the peptide. 100 μl of the samples thus prepared were seeded on DG18 plates (Dichloran 18% Glycerol Agar—ISO 21527-2) and incubated at 25° C. for 7 days.
as §3, with “fungicidal” for “antimycotic”, “fungal suspensions” for “cultures”

[10] = test system: L. monocytogenes (LM2) (field strain); test: IC50 by broth microdilution and plate count against L. monocytogenes; assay type: cell-based, Listeria monocytogenes; conditions: 6 hours at 37° C. in Fraser Broth, plate count
Procedure: as §4, §5, §6, §7
as §8, with “software. […]” for “software.”

## CC[C@H](C)[C@H](NC(=O)[C@H](CCCNC(=N)N)NC(=O)[C@@H](NC(=O)[C@H](Cc1c[nH]c2ccccc12)NC(=O)[C@H](CCCCN)NC(=O)[C@H](CC(C)C)NC(=O)[C@@H](N)CCCNC(=N)N)C(C)C)C(=O)N[C@@H](Cc1c[nH]c2ccccc12)C(=O)N[C@@H](CCCNC(=N)N)C(=O)N[C@@H](CCCNC(=N)N)C(N)=O [RiLK1, RLKWVRIWRR] (H-RLKWVRIWRR-NH2; N-terminus assumed)
[1]
  MBC: 2 µM (≈ 2.94 µg/mL)
[2]
  bactericidal activity expressed as a percentage of viable cells (CFU) vs control: 99.5%
[3]; ATCC 14053, 6 h
  MFC: less than or equal to 25 μM
[3]; C. albicans, 25 μM peptide, 6 h at 37° C.
  post-treatment decrease in the fungal load: 5 Log
[3]; C. albicans, 10^5 CFUs, 25 μM peptide, 6 h at 37° C.
  Drop Log CFU/ml: 5 Log CFU/ml
[4]
  bactericidal activity expressed as a percentage of viable cells (CFU) vs control: 96.9%
[5]
  IC50: 1200 nM
[6]
  bactericidal activity expressed as a percentage of viable cells (CFU) vs control: 100%
[7]
  bactericidal activity expressed as a percentage of viable cells (CFU) vs control: 100%
[8]
  MBC: 2 µM (≈ 2.94 µg/mL)
[9]; A. brasiliensis, 25 μM peptide, 6 h at 37° C.
  post-treatment decrease in the fungal load: 5 Log
[9]; A. brasiliensis, 10^5 CFUs, 25 μM peptide, 6 h at 37° C.
  Drop Log CFU/ml: 5 Log CFU/ml
[9]; ATCC 9341, 6 h
  MFC: less than or equal to 25 μM
[10]
  IC50: 460 nM

## RLRWVKIWKK (AMP) [RiLK31]
[2]
  bactericidal activity expressed as a percentage of viable cells (CFU) vs control: 98.8%
[4]
  bactericidal activity expressed as a percentage of viable cells (CFU) vs control: 83%
[6]
  bactericidal activity expressed as a percentage of viable cells (CFU) vs control: 100%
[7]
  bactericidal activity expressed as a percentage of viable cells (CFU) vs control: 100%

## RLRWVRIWRR (AMP) [RiLK3]
[2]
  bactericidal activity expressed as a percentage of viable cells (CFU) vs control: 99%
[4]
  bactericidal activity expressed as a percentage of viable cells (CFU) vs control: 96%
[6]
  bactericidal activity expressed as a percentage of viable cells (CFU) vs control: 100%
[7]
  bactericidal activity expressed as a percentage of viable cells (CFU) vs control: 100%
